Where a name gives a salt, the structure may show the parent alone. Read-outs that look alike come from different tables or passages of the source.
How the values were obtained:
[1] = target: T1, SARS-CoV-2 PLpro (nsp3 1564–1878) (Severe acute respiratory syndrome coronavirus 2, UniProt P0DTD1); assay: biochemical; design: FRET-quenched peptide (Pro3) cleavage by PLpro, 10 min pre-incubation, slope over 20 min, normalised to no-compound control; settings: low concentration screen, read-out: % of control remaining
[2] = target: T1, SARS-CoV-2 PLpro (nsp3 1564–1878); assay: biochemical; design: FRET-quenched peptide (Pro3) cleavage by PLpro, 10 min pre-incubation, slope over 20 min, normalised to no-compound control; settings: high concentration screen, read-out: % of control remaining

## CCN(CC)Cc1ccc(C(=O)N(CCc2ccccc2OC)[C@@H]2CCNC2)cc1 [4-[(diethylamino)methyl]-N-[2-(2-methoxyphenyl)ethyl]-N-[(3R)-3-pyrrolidinyl]benzamide dihydrochloride]
[1]; Well no.=5467
  remaining activity at 1.25 µM: 107%
[2]; Well no.=5467
  remaining activity at 3.75 µM: 109%

## O=[N+]([O-])c1cc(S(=O)(=O)Nc2ccc(O)c3ccccc23)ccc1Cl [4-chloro-N-(4-hydroxy-1-naphthyl)-3-nitrobenzenesulfonamide]
[1]; Well no.=5816
  remaining activity at 1.25 µM: 96.1%
[2]; Well no.=5816
  remaining activity at 3.75 µM: 97.4%

## COc1ccc(C2(C#N)CCC(C(=O)O)CC2)cc1OC1CCCC1 (centres unmarked) [4-cyano-4-[3-(cyclopentyloxy)-4-methoxyphenyl]cyclohexanecarboxylic acid]
[1]; Well no.=5837
  remaining activity at 1.25 µM: 101%
[2]; Well no.=5837
  remaining activity at 3.75 µM: 99.9%

## C[C@@H](c1nc(-c2ccc(C#N)cc2)cs1)[C@](O)(Cn1cncn1)c1ccc(F)cc1F [4-{2-[(1R,2R)-2-(2,4-difluorophenyl)-2-hydroxy-1-methyl-3-(1H-1,2,4-triazol-1-yl)propyl]-1,3-thiazol-4-yl}benzonitrile]
[1]; Well no.=5644
  remaining activity at 1.25 µM: 90.9%
[2]; Well no.=5644
  remaining activity at 3.75 µM: 92.4%

## CCCCCCCOc1cc2c(cc1/C(C)=C/c1ccc(C(=O)O)cc1)C(C)(C)CCS2(=O)=O [4-{(1E)-2-[7-(heptyloxy)-4,4-dimethyl-1,1-dioxido-3,4-dihydro-2H-thiochromen-6-yl]-1-propenyl}benzoic acid]
[1]; Well no.=5553
  remaining activity at 1.25 µM: 103%
[2]; Well no.=5553
  remaining activity at 3.75 µM: 105%

## COc1cc(C(=O)OCCCCNC(=N)N)cc(OC)c1O [4-{[amino(imino)methyl]amino}butyl 4-hydroxy-3,5-dimethoxybenzoate]
[1]; Well no.=5718
  remaining activity at 1.25 µM: 93.5%
[2]; Well no.=5718
  remaining activity at 3.75 µM: 98.3%

## NS(=O)(=O)c1ccc2c(c1)C1C=CCC1C(c1ccc(Br)cc1)N2 (centres unmarked) [4BP-TQS]
[1]; Well no.=5971
  remaining activity at 1.25 µM: 105%
[2]; Well no.=5971
  remaining activity at 3.75 µM: 105%

## Nc1ncnc2c1ncn2[C@@H]1O[C@H](C(=O)NC2CC2)[C@@H](O)[C@H]1O [5'-(N-Cyclopropyl)carboxamidoadenosine]
[1]; Well no.=86
  remaining activity at 1.25 µM: 99.1%
[2]; Well no.=86
  remaining activity at 3.75 µM: 101%

## Nc1ccn([C@@H]2O[C@H](COP(=O)(O)O)[C@@H](O)[C@H]2O)c(=O)n1 [5'-Cytidylic acid]
[1]; Well no.=8883
  remaining activity at 1.25 µM: 83.4%
[2]; Well no.=8883
  remaining activity at 3.75 µM: 86.7%

## C[C@H]1O[C@@H](n2cnc3c(N)ncnc32)[C@H](O)[C@@H]1O [5'-Deoxyadenosine]
[1]; Well no.=7251
  remaining activity at 1.25 µM: 97.6%
[1]; Well no.=7904
  remaining activity at 1.25 µM: 91.4%
[2]; Well no.=7251
  remaining activity at 3.75 µM: 99%
[2]; Well no.=7904
  remaining activity at 3.75 µM: 94.7%

## CSC[C@H]1O[C@@H](n2cnc3c(N)ncnc32)[C@H](O)[C@@H]1O [5'-Methylthioadenosine]
[1]; Well no.=6295
  remaining activity at 1.25 µM: 102%
[1]; Well no.=7812
  remaining activity at 1.25 µM: 105%
[2]; Well no.=6295
  remaining activity at 3.75 µM: 103%
[2]; Well no.=7812
  remaining activity at 3.75 µM: 106%

## CCNC(=O)[C@H]1O[C@@H](n2cnc3c(N)ncnc32)[C@H](O)[C@@H]1O [5'-N-Ethylcarboxamidoadenosine]
[1]; Well no.=694
  remaining activity at 1.25 µM: 97.5%
[1]; Well no.=7950
  remaining activity at 1.25 µM: 95.4%
[1]; Well no.=8119
  remaining activity at 1.25 µM: 104%
[2]; Well no.=694
  remaining activity at 3.75 µM: 96%
[2]; Well no.=7950
  remaining activity at 3.75 µM: 96.2%
[2]; Well no.=8119
  remaining activity at 3.75 µM: 102%

## CNC(=O)[C@H]1O[C@@H](n2cnc3c(N)ncnc32)[C@H](O)[C@@H]1O [5'-N-Methyl carboxamidoadenosine]
[1]; Well no.=14
  remaining activity at 1.25 µM: 101%
[2]; Well no.=14
  remaining activity at 3.75 µM: 98%

## CCCCC/C=C\C\C=C/C=C/C=C/[C@@H](O)[C@@H](O)CCCC(=O)O [5(S),6(R)-DIHETE]
[1]; Well no.=4373
  remaining activity at 1.25 µM: 106%
[2]; Well no.=4373
  remaining activity at 3.75 µM: 103%

## CCCCC/C=C\C/C=C\C/C=C\C=C\[C@H](CCCC(=O)O)OO [5(S)-HPETE]
[1]; Well no.=4327
  remaining activity at 1.25 µM: 106%
[2]; Well no.=4327
  remaining activity at 3.75 µM: 103%

## CCCCCCCC/C=C\C/C=C\C/C=C\CCCC(=O)O [5(Z), 8(Z), 11(Z)-Eicosatrienoic Acid]
[1]; Well no.=4303
  remaining activity at 1.25 µM: 104%
[1]; Well no.=4594
  remaining activity at 1.25 µM: 98.9%
[2]; Well no.=4303
  remaining activity at 3.75 µM: 103%
[2]; Well no.=4594
  remaining activity at 3.75 µM: 100%

## CCCCCCCCCCC/C=C\C/C=C\CCCC(=O)O [5(Z), 8(Z)-Eicosadienoic acid]
[1]; Well no.=4410
  remaining activity at 1.25 µM: 93.6%
[2]; Well no.=4410
  remaining activity at 3.75 µM: 92.4%
